Assay results taken from patent US20070293544A1, “Novel 4-Arylamino Pyridone Derivatives as Mek Inhibitors for the Treatment of Hyper-Proliferative Disorders” (priority 2004, published 2007).

Assays:
[1] = tested on: human melanoma A375 cells; assay: Tumor cell proliferation assay (ATP Lite), A375; format: cell-based; conditions: 4 days incubation
Experimental: (§1) Assay 2: Tumor Cell Proliferation Assays (ATP Lite)
(§2) Murine colon C26, human melanoma A375 and human melanoma Mel5 cells were plated in 96 well Corning white plates (1500 cells/well for C26, and 2000 cells/well for A375, and MiaPaCa-2) and cultured overnight at 37° C. in 5% CO2. Inhibitors were serially diluted in 100% DMSO and subsequently added to cells to reach a final concentration of 0.25% DMSO. The cells were incubated for 4 days in the presence of test compounds in cell growth media (DMEM with 10% fetal bovine serum, 2 mM glutamine for C26, and MiaPaCa-2, and RPMI with 10% fetal bovine serum, 2 mM glutamine for A375). Cell proliferation was quantitated using the ATP lite cell proliferation kit (Packard). Columns 2-4 show the concentration of compounds required to induce 50% cell death (IC50 in μM) of […]. With “+” meaning 100 μM<IC50≦10 μM and “++” IC50≦1 μM and “n.d.” means not determined.

[2] = tested on: human melanoma Mel5 cells; assay: Tumor cell proliferation assay (ATP Lite), Mel5; format: cell-based; conditions: 4 days incubation
Experimental: as §1, §2

[3] = molecular target: human MEK1 (Homo sapiens, UniProt Q02750); assay: Inhibition of human MEK1 kinase activity, time resolved fluorescence resonance energy transfer assay; format: biochemical; conditions: 100 nM MEK1, 15 μM ATP, 300 nM ERK2, two hours
Experimental: The activity of the compounds of the present invitation may be determined by the following procedure: Inhibition of human MEK1 kinase activity was monitored with a homogenous, fluorescence based assay. The assay uses time resolved fluorescence resonance energy transfer to probe for phosphorylation of […] by MEK1. The assay is carried out in low volume 96 well microtiterplates. In a total volume of 15 μl, compounds are incubated with 100 nM MEK1, 15 μM ATP, 300 nM ERK2 employing a buffer containing 20 mM TRIS/HCl, 10 mM MgCl2, 100 μM NaVO4, 1 mM DTT, and 0.005% Tween 20 (pH 7.4). After two hours, 5 nM Europium-anti-PY20 (Perkin Elmer) and 50 nM Anti-GST-Allophycocyanin (CisBio) in buffer containing 50 mM EDTA and 0,05% BSA are added and the reaction incubated for one hour in the dark. Time-resolved fluorescence is measured using a LJL-Analyst (Molecular Devices) with an excitation wavelength of 340 nm and an emission wavelength of 665 nm. The final concentration of DMSO is 2%. To assess the inhibitory potential of the compounds, IC50-values were determined.

[4] = tested on: Murine colon C26 cells; assay: Tumor cell proliferation assay (ATP Lite), C26; format: cell-based; conditions: 4 days incubation
Experimental: as §1, §2

[5] = Microsomal stability assay, rat liver microsomes; format: in vitro ADME; conditions: male, Sprague Dawley, pooled rat liver microsomes, pH 7.4; 3 μM compound, 0.5 mg/ml rat liver microsomes, 37° C., 2 mM NADPH; read-out: RLM t½
Experimental: (§3) Assay 3: Microsomal Stability Assay
(§4) Compounds were tested on their stability in human, rat and mouse liver microsomal preparations (HLM, RLM and MLM respectively). At a final concentration of 3 μM, compounds were incubated at 37° C. with 0.5 mg/ml human, rat or mouse liver microsomes in a buffer containing 50 mM phosphate, pH 7.4 and 2 mM NADPH. Pooled human liver microsomes or pooled male rat liver microsomes (Sprague Dawley) were obtained from NatuTec (Frankfurt, Germany). Incubations without NADPH served as negative controls. Reactions were stopped after 0, 15, 30, 45 or 60 min by the addition of acetonitrile and microsomes were pelleted by centrifugation (10 min at 6200× g). Supernatants were analyzed by HPLC regarding the concentration of mother compound. Finally, the half-life of compounds in the regarding microsomal preparation was calculated.

[6] = Microsomal stability assay, human liver microsomes; format: in vitro ADME; conditions: pooled human liver microsomes, pH 7.4; 3 μM compound, 0.5 mg/ml human liver microsomes, 37° C., 2 mM NADPH; read-out: HLM t½
Experimental: as §3, §4

[7] = tested on: Tumors; conditions: patients; cited from earlier work
[8] = in vivo; cited from earlier work

human MEK1, sequence (Q02750 whole entry): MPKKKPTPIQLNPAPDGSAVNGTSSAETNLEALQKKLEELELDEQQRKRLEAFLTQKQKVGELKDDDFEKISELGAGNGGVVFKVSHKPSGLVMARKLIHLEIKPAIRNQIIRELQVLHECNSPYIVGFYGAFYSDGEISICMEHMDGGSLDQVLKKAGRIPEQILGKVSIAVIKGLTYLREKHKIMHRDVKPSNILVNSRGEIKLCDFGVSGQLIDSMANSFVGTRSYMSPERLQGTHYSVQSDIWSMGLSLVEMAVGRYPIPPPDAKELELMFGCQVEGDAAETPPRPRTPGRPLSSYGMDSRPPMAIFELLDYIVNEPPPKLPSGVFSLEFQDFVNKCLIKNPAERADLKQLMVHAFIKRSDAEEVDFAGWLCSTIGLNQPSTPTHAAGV

A375 cells IC50 [1] | Mel5 cells IC50 [2] | IC50 [3] [µM] | C26 cells IC50 [4] | half-life at 3 μM [5] [h] | half-life at 3 μM [6] [h] | Structure (SMILES) | efficacy in clinical phase II trials [7] | bioavailability [8]
+ (100 μM<IC50≦10 μM) | + (100 μM<IC50≦10 μM) | ≤ 1 | + (100 μM<IC50≦10 μM) | – | – | Cc1cc(Br)ccc1Nc1cc(=O)n(C)cc1C(=O)O [Compound 3a, 4-(4-Bromo-2-methyl-phenylamino)-1-methyl-6-oxo-1,6-dihydro-pyridine-3-carboxylic acid] | – | –
+ (100 μM<IC50≦10 μM) | + (100 μM<IC50≦10 μM) | ≤ 1 | + (100 μM<IC50≦10 μM) | > 2 | > 2 | Cc1cc(Br)ccc1Nc1cc(=O)n(C)cc1C(=O)NOC[C@@H](O)CO [Compound 4b, 4-[(4-Bromo-2-methylphenyl)amino]-N-{[(2S)-2,3-dihydroxypropyl]oxy}-1-methyl-6-oxo-1,6-dihydropyridine-3-carboxamide] | – | –
– | – | – | – | – | – | O=C(NOCC1CC1)c1ccc(F)c(F)c1Nc1ccc(I)cc1Cl [PD-184352] | lacking efficacy | low
– | – | ≤ 1 | – | – | – | Cc1cc(I)ccc1Nc1cc(=O)n(C)cc1C(=O)O [Compound 3b, 4-(4-Iodo-2-methyl-phenylamino)-1-methyl-6-oxo-1,6-dihydro-pyridine-3-carboxylic acid] | – | –
+ (100 μM<IC50≦10 μM) | – | ≤ 1 | + (100 μM<IC50≦10 μM) | > 2 | > 2 | Cc1cc(I)ccc1Nc1cc(=O)n(C)cc1C(=O)NOC[C@@H](O)CO [Compound 4c, 4-[(4-Iodo-2-methylphenyl)amino]-N-{[(2S)-2,3-dihydroxypropyl]oxy}-1-methyl-6-oxo-1,6-dihydropyridine-3-carboxamide] | – | –
– | – | ≤ 1 | – | 0.517 to 2 | 0.517 to 2 | C=CCNc1nnc(-c2cn(C)c(=O)cc2Nc2ccc(Br)cc2C)o1 [Compound 7a, 5-(5-Allylamino-[1,3,4]oxadiazol-2-yl)-4-(4-bromo-2-methyl-phenylamino)-1-methyl-1H-pyridin-2-one] | – | –
+ (100 μM<IC50≦10 μM) | + (100 μM<IC50≦10 μM) | ≤ 1 | + (100 μM<IC50≦10 μM) | – | – | Cc1cc(Br)ccc1Nc1cc(=O)n(C)cc1C(=O)NO [Compound 4a, 4-(4-Bromo-2-methyl-phenylamino)-1-methyl-6-oxo-1,6-dihydro-pyridine-3-carboxylic acid hydroxyamide] | – | –
